The source of these data is patent US7960397B2, “6,9-disubstituted purine derivatives and their use as cosmetics and cosmetic compositions” (Institute of Experimental Botany, Academy of Sciences of …, priority 2007, dated 2011).

In test [1] the test system is cytokinin-dependent tobacco callus Nicotiana tabacum L. cv. Wisconsin 38. The test is described as follows: Cytokinin activity in tobacco callus bioassay. The test is classed as cell-based. The following applies: for concentration with highest activity: growth of tobacco callus, four weeks of cultivation, tested 10^−8 M to 10^−4 M; for Activity (%) [10^−5 mol · l^−1 BAP = 100%]: increase of fresh callus weight at the concentration with highest activity, 10^−5 M BAP = 100%. The method, then:
Estimation of cytokinin biological activity of novel compounds in callus bioassay. Cytokinin-dependent tobacco callus Nicotiana tabacum L. cv. […] Subcultivation was carried out every three weeks. Fourteen days before the bioassay, the callus tissue was transferred to the media without the compound tested. The biological activity was determined from the increase of the fresh callus weight after four weeks of cultivation. Five replicates were prepared for each concentration of the compound tested and the entire test was repeated twice. […] The relative activity of the compound at this concentration was calculated (Table 8). […] The compounds to be tested were dissolved in dimethylsulfoxide (DMSO) and the solution brought up to 10^−3 M with distilled water. This stock solution was further diluted with the respective media used for the biotest to a concentration ranging from 10^−8 M to 10^−4 M.

Test [2] concerns Amaranthus caudatus cotyledon/hypocotyl explants. Put plainly: Amaranthus bioassay (betacyanin content). Set-up: species or system Amaranthus caudatus var. atropurpurea. The following applies: for concentration with highest activity: betacyanin content after 48 h incubation, tested 10^−8 M to 10^−4 M; for Activity (%) [10^−5 mol · l^−1 BAP = 100%]: betacyanin content at the concentration with highest activity, 10^−5 M BAP = 100%. As to the method:
Testing of novel compounds for typical cytokinin activity in Amaranthus bioassay. A standard Amaranthus bioassay was performed with several modifications. The seeds of Amaranthus caudatus var. atropurpurea were surface-sterilized in 10% (w/v) N-chlorobenzenesulfonamide for 10 min and washed 5 times with deionized water. They were placed in 14 cm Petri dishes containing paper tissues saturated with deionized water. After 72 h of cultivation at 25° C. in darkness, the roots of the seedlings were cut off. The explants, consisting of two cotyledons and hypocotyls, were placed in 5 cm Petri dishes onto two layers of filter paper soaked with 1 ml of the incubation medium containing 10 mmol of NA2HPO4—KH2PO4, pH 6.8, 5 mmol of tyrosine and the compound to be tested. There were 20 explants per dish. The procedure was carried out under a green safe light in a darkroom. […] The concentration of betacyanin was determined from the absorbencies at 537 nm and 620 nm as follows: DA=A537 nm−A620 nm. […] Relative activity of the compound at this concentration was calculated. The activity obtained for 10^−5 M 6-benzylaminopurine (BAP) was defined as 100%.
(§1) The compounds to be tested were dissolved in dimethylsulfoxide (DMSO) and the solution brought up to 10^−3 M with distilled water.

The next test concerns excised wheat leaf tips. Put plainly: Antisenescence test, retention of chlorophyll in excised wheat leaf tips. Set-up: species or system Triticum aestivum cv. Hereward. The following applies: for activity (%) [10^−4 mol · l^−1 BAP = 100%]: retention of chlorophyll in excised wheat leaf tips at the concentration with highest activity, 10 replicate determinations; for concentration with highest activity: retention of chlorophyll in excised wheat leaf tips, tested range 10^−8 M to 10^−4 M, 96 h in the dark at 25° C. As to the method: Testing of antisenescence properties of novel cytokinin compounds on wheat leaf segments. Seeds of winter wheat, Triticum aestivum cv. Hereward, were washed under running water for 24 hours and then sown on vermiculite soaked with the Knop's solution. They were placed in the grow chamber at 25° C. with a 16 h-8 h light period at 50 mmol.m^−2.s^−1. After 7 days, the first leaf was fully developed and the second leaf had started to grow. A 35 mm long tip section of the first leaf, was removed from each of 5 seedlings and trimmed slightly to a combined weight of 100 mg. The basal ends of the five leaf tips were placed in the wells of a microtiter polystyrene plate containing […] of the solution of the tested compound each. The entire plate was inserted into a plastic box lined with paper tissues soaked with distilled water to prevent leaf sections from drying out. After 96 h incubation in the dark at 25° C., the leaves were removed and chlorophyll was extracted by heating at 80° C. for 10 min in 5 ml of 80% ethanol (v/v). The sample volume was then restored to 5 ml by the addition of 80% ethanol (v/v). The absorbance of the extract was recorded at 665 nm. In addition, chlorophyll extracts from fresh leaves and leaf tips incubated in deionized water were measured. […] Relative activity of the compound at this concentration was calculated (Table 7). The activity obtained for 10^−4 M 6-benzylaminopurine (BAP) was defined as 100%. The values shown are means of five replicates and the whole experiment was repeated twice.
as §1

Test [3] has as its system human diploid fibroblasts (HCA cells, HCA20, HCA40, HCA60). The test is described as follows: Senescent cells (β-galactosidase staining) in culture of human fibroblasts. The test is classed as cell-based. The following applies: for SENESCENT CELLS (%) HCA20: human fibroblasts passage 20 (HCA20); for SENESCENT CELLS (%) HCA40: human fibroblasts passage 40 (HCA40); for SENESCENT CELLS (%) HCA60: human fibroblasts passage 60 (HCA60). The method, then: In this example, human diploid fibroblasts (HCA cells of various passage levels: passage 20—designated HCA20; passage 40—designated HCA40; passage 60—designated HCA60) were stained for β-galactosidase activity. The medium used for the cell cultivation was removed, the cells were washed twice in […], and fixed in 2-3 ml of fixing solution comprised of a 2% formaldehyde and 0.2% glutaraldehyde in PBS. The cells were incubated at room temperature for 5 minutes, and then washed twice with PBS. The cells were subsequently incubated at 37° C.

In the case of `Oc1cccc(Nc2ncnc3c2ncn3C2CCCCO2)c1` (stereo not drawn) [3-hydroxyanilino / tetrahydropyran-2-yl], in test [1], the “concentration with highest activity” value is listed as 10^−5 mol · l^−1 and the “Activity (%) [10^−5 mol · l^−1 BAP = 100%]” value was determined as 65%. Moreover, in test [2], the “concentration with highest activity” value is 10^−4 mol · l^−1 and the “Activity (%) [10^−5 mol · l^−1 BAP = 100%]” value is listed as 122%. Also, in the test with excised wheat leaf tips, the “activity (%) [10^−4 mol · l^−1 BAP = 100%]” value was determined as 23% and the “concentration with highest activity” value is given as 10^−4 mol · l^−1. In test [3], the “SENESCENT CELLS (%) HCA20” value was 5%, the “SENESCENT CELLS (%) HCA40” value amounted to 4% and the “SENESCENT CELLS (%) HCA60” value was found to be 28%.

Regarding `Oc1ccccc1CNc1ncnc2c1ncn2C1CCCO1` (stereo not drawn) [6-(2-hydroxybenzylamino)-9-(tetrahydrofuran-2-yl)-purine], in test [1], the “concentration with highest activity” value is 10^−5 mol · l^−1 and the “Activity (%) [10^−5 mol · l^−1 BAP = 100%]” value is recorded as 78%. Also, in test [2], the “concentration with highest activity” value is 10^−4 mol · l^−1 and the “Activity (%) [10^−5 mol · l^−1 BAP = 100%]” value amounted to 33%. In the test with excised wheat leaf tips, the “activity (%) [10^−4 mol · l^−1 BAP = 100%]” value worked out at 26% and the “concentration with highest activity” value is listed as 10^−4 mol · l^−1. Further, in test [3], the “SENESCENT CELLS (%) HCA20” value was determined as 4%, the “SENESCENT CELLS (%) HCA40” value is given as 2% and the “SENESCENT CELLS (%) HCA60” value is recorded as 26%.

In the case of `Oc1ccccc1CNc1ncnc2c1ncn2C1CCCCO1` (stereo not drawn) [6-(2-hydroxybenzylamino)-9-(tetrahydropyran-2-yl)purine], in test [1], the “concentration with highest activity” value is recorded as 10^−5 mol · l^−1 and the “Activity (%) [10^−5 mol · l^−1 BAP = 100%]” value was 80%. In test [2], the “concentration with highest activity” value is reported as 10^−4 mol · l^−1 and the “Activity (%) [10^−5 mol · l^−1 BAP = 100%]” value was 41.6%. In the test with excised wheat leaf tips, the “activity (%) [10^−4 mol · l^−1 BAP = 100%]” value is 23.6% and the “concentration with highest activity” value is given as 10^−4 mol · l^−1. Moreover, in test [3], the “SENESCENT CELLS (%) HCA20” value is listed as 4%, the “SENESCENT CELLS (%) HCA40” value stood at 2% and the “SENESCENT CELLS (%) HCA60” value came out at 26%.

Consider `Oc1cccc(CNc2ncnc3c2ncn3C2CCCO2)c1` (stereo not drawn) [6-(3-hydroxybenzylamino)-9-(tetrahydrofuran-2-yl)-purine], for which, in test [1], the “concentration with highest activity” value is on record as 10^−5 mol · l^−1 and the “Activity (%) [10^−5 mol · l^−1 BAP = 100%]” value is reported as 125%. In test [2], the “concentration with highest activity” value is given as 10^−4 mol · l^−1 and the “Activity (%) [10^−5 mol · l^−1 BAP = 100%]” value was determined as 107%. For the same molecule, in the test with excised wheat leaf tips, the “activity (%) [10^−4 mol · l^−1 BAP = 100%]” value is 113% and the “concentration with highest activity” value is given as 10^−4 mol · l^−1. Further, in test [3], the “SENESCENT CELLS (%) HCA20” value is given as 5%, the “SENESCENT CELLS (%) HCA40” value was determined as 3% and the “SENESCENT CELLS (%) HCA60” value is on record as 25%.

As for `Oc1cccc(CNc2ncnc3c2ncn3C2CCCCO2)c1` (stereo not drawn) [6-(3-hydroxybenzylamino)-9-(tetrahydropyran-2-yl)purine], in test [1], the “concentration with highest activity” value is recorded as 10^−5 mol · l^−1 and the “Activity (%) [10^−5 mol · l^−1 BAP = 100%]” value turned out to be 139%. In addition, in test [2], the “concentration with highest activity” value was 10^−4 mol · l^−1 and the “Activity (%) [10^−5 mol · l^−1 BAP = 100%]” value was 105.1%. Further, in the test on excised wheat leaf tips, the “activity (%) [10^−4 mol · l^−1 BAP = 100%]” value was determined as 133.1% and the “concentration with highest activity” value is on record as 10^−4 mol · l^−1. Also, in test [3], the “SENESCENT CELLS (%) HCA20” value amounted to 5%, the “SENESCENT CELLS (%) HCA40” value came out at 3% and the “SENESCENT CELLS (%) HCA60” value was 25%.

`CC(CO)CCNc1ncnc2c1ncn2C1CCCCO1` (stereo not drawn) [6-(4-hydroxy-3-methylbutylamino)-9-(tetrahydropyran-2-yl)purine]: in test [1], the “concentration with highest activity” value is given as 10^−5 mol · l^−1 and the “Activity (%) [10^−5 mol · l^−1 BAP = 100%]” value amounted to 112%. For the same molecule, in test [2], the “concentration with highest activity” value was 10^−4 mol · l^−1 and the “Activity (%) [10^−5 mol · l^−1 BAP = 100%]” value came out at 83%. Further, in the test on excised wheat leaf tips, the “activity (%) [10^−4 mol · l^−1 BAP = 100%]” value turned out to be 95% and the “concentration with highest activity” value is reported as 10^−4 mol · l^−1. In test [3], the “SENESCENT CELLS (%) HCA20” value was 5%, the “SENESCENT CELLS (%) HCA40” value turned out to be 2% and the “SENESCENT CELLS (%) HCA60” value is on record as 25%.
